Test results published in patent EP4722201A1, “3-PHENYLISOXAZOLINE-5-CARBOXAMIDE COMPOUND, AND PREPARATION METHOD THEREFOR, HERBICIDAL COMPOSITION THEREOF AND USE THEREOF” (Jiangsu Flag Chemical Industry Co., Ltd, priority 2023, dated 2024).

How the values were obtained:
Assay in all cases: Indoor herbicide activity determination, Seed Treatment; pre-emergence (soil spray)
Format in all cases: in vivo
Lolium multiflorum = tested on: Lolium multiflorum
Method in brief: (§1)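 Pre-emergence soil spray; sandy soil pH 6.1, OM 1%, 7 cm pots; seeds covered, wetted from below, 24 h incubation under light at constant temperature; spray tower, 300 mm height, 390 mL/min nozzle flow; readout = % fresh-weight inhibition vs control at 21 d.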

Alopecurus myosuroides = tested on: Alopecurus myosuroides
Method in brief: as §1

Cyperus iria = conditions: read-out: Herbicidal activities (inhibition rate) Cyperus iria; for inhibition at 120 g/ha: 120 g a.i./ha; for inhibition at 60 g/ha: 60 g a.i./ha
Method in brief: as §1

Aegilops tauschii = conditions: read-out: Herbicidal activities (inhibition rate) Aegilops tauschii; for inhibition at 120 g/ha: 120 g a.i./ha; for inhibition at 60 g/ha: 60 g a.i./ha
Method in brief: as §1

Digitaria sanguinalis = conditions: read-out: Herbicidal activities (inhibition rate) Digitaria sanguinalis; for inhibition at 120 g/ha: 120 g a.i./ha; for inhibition at 60 g/ha: 60 g a.i./ha
Method in brief: as §1

Alopecurus japonicus = tested on: Alopecurus japonicus
Method in brief: as §1

Leptochloa chinensis = tested on: Leptochloa chinensis
Method in brief: as §1

Eleusine indica = tested on: Eleusine indica
Method in brief: as §1

Eclipta prostrata = conditions: 60 g a.i./ha, read-out: Herbicidal activities (inhibition rate) Eclipta prostrata
Method in brief: as §1

Row | Structure (SMILES) | Herbicidal activities, Lolium multiflorum (inhibition rate class) (Lolium multiflorum; Dosage 240 g a.i./ha) | Herbicidal activities, Alopecurus myosuroides (inhibition rate class) (Alopecurus myosuroides; Dosage 240 g a.i./ha) | inhibition at 120 g/ha (Cyperus iria) [%] | inhibition at 120 g/ha (Aegilops tauschii) [%] | inhibition at 120 g/ha (Digitaria sanguinalis) [%] | Herbicidal activities, Alopecurus japonicus (inhibition rate class) (Alopecurus japonicus; Dosage 240 g a.i./ha) | Herbicidal activities, Leptochloa chinensis (inhibition rate class) (Leptochloa chinensis; Dosage 240 g a.i./ha) | Herbicidal activities, Lolium multiflorum (inhibition rate class) (Lolium multiflorum; Dosage 120 g a.i./ha) | Herbicidal activities, Alopecurus myosuroides (inhibition rate class) (Alopecurus myosuroides; Dosage 120 g a.i./ha) | Herbicidal activities, Eleusine indica (inhibition rate class) (Eleusine indica; Dosage 120 g a.i./ha) | inhibition at 60 g/ha (Aegilops tauschii) [%] | inhibition at 60 g/ha (Digitaria sanguinalis) [%] | Herbicidal activities, Alopecurus japonicus (inhibition rate class) (Alopecurus japonicus; Dosage 120 g a.i./ha) | Herbicidal activities, Leptochloa chinensis (inhibition rate class) (Leptochloa chinensis; Dosage 120 g a.i./ha) | other results
1 | COC(=O)[C@H]1C[C@@H](NC(=O)C2(C)CC(c3cc(F)cc(OC(F)(F)F)c3)=NO2)CO1 (mixture of isomers) [I-380] | A (A indicates that the inhibition rate was greater than or equal to 80% to 100%) | A (A indicates that the inhibition rate was greater than or equal to 80% to 100%) | 80 to 100 | 80 to 100 | 80 to 100 | A (A indicates that the inhibition rate was greater than or equal to 80% to 100%) | A (A indicates that the inhibition rate was greater than or equal to 80% to 100%) |  |  |  |  |  |  |  | 
2 | C=C[C@]1(C(=O)N[C@H]2C[C@@H](C(=O)OCC(F)(F)F)C2)CC(c2cc(F)cc(F)c2)=NO1 [I-15] |  |  |  |  |  |  |  | A (A indicates that the inhibition rate was greater than or equal to 80% to 100%) | A (A indicates that the inhibition rate was greater than or equal to 80% to 100%) | A (A indicates that the inhibition rate was greater than or equal to 80% to 100%) | 80 to 100 | 60 to 80 | A (A indicates that the inhibition rate was greater than or equal to 80% to 100%) | A (A indicates that the inhibition rate was greater than or equal to 80% to 100%) | 
3 | C=C[C@]1(C(=O)N[C@H]2C[C@@H](C(=O)O[C@H](C)COC)C2)CC(c2cc(F)cc(F)c2)=NO1 [I-19] |  |  |  |  |  |  |  | A (A indicates that the inhibition rate was greater than or equal to 80% to 100%) | A (A indicates that the inhibition rate was greater than or equal to 80% to 100%) | A (A indicates that the inhibition rate was greater than or equal to 80% to 100%) | 80 to 100 | 80 to 100 | A (A indicates that the inhibition rate was greater than or equal to 80% to 100%) | A (A indicates that the inhibition rate was greater than or equal to 80% to 100%) | inhibition at 60 g/ha (Cyperus iria): 60 to 80%
4 | CC[C@@H](C)OC(=O)[C@H]1C[C@@H](NC(=O)[C@@]2(C)CC(c3cc(F)cc(F)c3)=NO2)C1 [I-128] |  |  |  |  |  |  |  | A (A indicates that the inhibition rate was greater than or equal to 80% to 100%) | A (A indicates that the inhibition rate was greater than or equal to 80% to 100%) | A (A indicates that the inhibition rate was greater than or equal to 80% to 100%) | 80 to 100 | 60 to 80 | A (A indicates that the inhibition rate was greater than or equal to 80% to 100%) | A (A indicates that the inhibition rate was greater than or equal to 80% to 100%) | 
5 | CC[C@H](C)OC(=O)[C@H]1C[C@@H](NC(=O)[C@@]2(C)CC(c3cc(F)cc(F)c3)=NO2)C1 [I-129] |  |  |  |  |  |  |  | A (A indicates that the inhibition rate was greater than or equal to 80% to 100%) | A (A indicates that the inhibition rate was greater than or equal to 80% to 100%) | A (A indicates that the inhibition rate was greater than or equal to 80% to 100%) | 80 to 100 | 60 to 80 | A (A indicates that the inhibition rate was greater than or equal to 80% to 100%) | B (B indicates that the inhibition rate was greater than or equal to 60% to less than 80%) | 
6 | CSCCOC(=O)C1CC(NC(=O)C2(C)CC(c3cc(F)cc(OC(F)(F)F)c3)=NO2)CO1 (stereo not drawn) [I-382] | A (A indicates that the inhibition rate was greater than or equal to 80% to 100%) | A (A indicates that the inhibition rate was greater than or equal to 80% to 100%) | 80 to 100 | 80 to 100 | 80 to 100 | A (A indicates that the inhibition rate was greater than or equal to 80% to 100%) | A (A indicates that the inhibition rate was greater than or equal to 80% to 100%) |  |  |  |  |  |  |  | 
7 | C[S+]([O-])CCOC(=O)C1CC(NC(=O)C2(C)CC(c3cc(F)cc(OC(F)(F)F)c3)=NO2)CO1 (stereo not drawn) [I-383] | A (A indicates that the inhibition rate was greater than or equal to 80% to 100%) | A (A indicates that the inhibition rate was greater than or equal to 80% to 100%) | 60 to 80 | 80 to 100 | 80 to 100 | A (A indicates that the inhibition rate was greater than or equal to 80% to 100%) | A (A indicates that the inhibition rate was greater than or equal to 80% to 100%) |  |  |  |  |  |  |  | 
8 | CC1(C(=O)NC2COC(C(=O)OCCS(C)(=O)=O)C2)CC(c2cc(F)cc(OC(F)(F)F)c2)=NO1 (stereo not drawn) [I-384] | A (A indicates that the inhibition rate was greater than or equal to 80% to 100%) | A (A indicates that the inhibition rate was greater than or equal to 80% to 100%) | 60 to 80 | 80 to 100 | 80 to 100 | A (A indicates that the inhibition rate was greater than or equal to 80% to 100%) | A (A indicates that the inhibition rate was greater than or equal to 80% to 100%) |  |  |  |  |  |  |  | 
9 | COC(=O)C1CC(NC(=O)C2(C)CC(c3cc(F)cc(OC(F)F)c3)=NO2)CO1 (stereo not drawn) [I-385] | B (B indicates that the inhibition rate was greater than or equal to 60% to less than 80%) | A (A indicates that the inhibition rate was greater than or equal to 80% to 100%) |  | 80 to 100 | 60 to 80 | A (A indicates that the inhibition rate was greater than or equal to 80% to 100%) | A (A indicates that the inhibition rate was greater than or equal to 80% to 100%) |  |  |  |  |  |  |  | 
10 | C=C[C@]1(C(=O)N[C@H]2C=C[C@@H](C(=O)O[C@H](C)COC)C2)CC(c2cc(F)cc(OC(F)(F)F)c2)=NO1 [I-459] |  |  |  |  |  |  |  |  |  |  |  | 60 to 80 |  |  | Herbicidal activity (inhibition rate class), Lolium multiflorum (Lolium multiflorum; Dosage 120 g a.i./ha): A (A indicates that the inhibition rate was greater than or equal to 80% to 100%); Herbicidal activity (inhibition rate class), Alopecurus myosuroides (Alopecurus myosuroides; Dosage 120 g a.i./ha): A (A indicates that the inhibition rate was greater than or equal to 80% to 100%); Herbicidal activity (inhibition rate class), Eleusine indica (Eleusine indica; Dosage 120 g a.i./ha): A (A indicates that the inhibition rate was greater than or equal to 80% to 100%); inhibition at 60 g/ha (Cyperus iria): 60 to 80%; Herbicidal activity (inhibition rate class), Alopecurus japonicus (Alopecurus japonicus; Dosage 120 g a.i./ha): A (A indicates that the inhibition rate was greater than or equal to 80% to 100%); inhibition at 60 g/ha (Eclipta prostrata): 60 to 80%; Herbicidal activity (inhibition rate class), Leptochloa chinensis (Leptochloa chinensis; Dosage 120 g a.i./ha): A (A indicates that the inhibition rate was greater than or equal to 80% to 100%)
11 | COC(=O)[C@@H]1C=C[C@H](NC(=O)C2(C)CC(c3cc(F)cc(OC(F)(F)F)c3)=NO2)C1 (stereo partly drawn) [I-489] |  |  | 80 to 100 | 80 to 100 | 60 to 80 |  |  |  |  |  |  |  |  |  | Herbicidal activity (inhibition rate class), Lolium multiflorum (Lolium multiflorum; Dosage 240 g a.i./ha): A (A indicates that the inhibition rate was greater than or equal to 80% to 100%); Herbicidal activity (inhibition rate class), Alopecurus myosuroides (Alopecurus myosuroides; Dosage 240 g a.i./ha): A (A indicates that the inhibition rate was greater than or equal to 80% to 100%); Herbicidal activity (inhibition rate class), Eleusine indica (Eleusine indica; Dosage 240 g a.i./ha): A (A indicates that the inhibition rate was greater than or equal to 80% to 100%); Herbicidal activity (inhibition rate class), Alopecurus japonicus (Alopecurus japonicus; Dosage 240 g a.i./ha): A (A indicates that the inhibition rate was greater than or equal to 80% to 100%); Herbicidal activity (inhibition rate class), Leptochloa chinensis (Leptochloa chinensis; Dosage 240 g a.i./ha): A (A indicates that the inhibition rate was greater than or equal to 80% to 100%)
12 | O=C(OCC1CCCC1)[C@@H]1C=C[C@H](NC(=O)[C@@]2(C(F)(F)F)CC(c3cc(F)cc(C(F)(F)F)c3)=NO2)C1 [I-519] |  |  |  |  |  |  |  |  |  |  |  | 80 to 100 |  |  | Herbicidal activity (inhibition rate class), Lolium multiflorum (Lolium multiflorum; Dosage 120 g a.i./ha): A (A indicates that the inhibition rate was greater than or equal to 80% to 100%); Herbicidal activity (inhibition rate class), Alopecurus myosuroides (Alopecurus myosuroides; Dosage 120 g a.i./ha): A (A indicates that the inhibition rate was greater than or equal to 80% to 100%); Herbicidal activity (inhibition rate class), Eleusine indica (Eleusine indica; Dosage 120 g a.i./ha): A (A indicates that the inhibition rate was greater than or equal to 80% to 100%); inhibition at 60 g/ha (Cyperus iria): 80 to 100%; Herbicidal activity (inhibition rate class), Alopecurus japonicus (Alopecurus japonicus; Dosage 120 g a.i./ha): A (A indicates that the inhibition rate was greater than or equal to 80% to 100%); inhibition at 60 g/ha (Eclipta prostrata): 80 to 100%; Herbicidal activity (inhibition rate class), Leptochloa chinensis (Leptochloa chinensis; Dosage 120 g a.i./ha): A (A indicates that the inhibition rate was greater than or equal to 80% to 100%)
